Like-named read-outs stand apart in the source and are kept apart here.
Experiments:
[1] = UV filter solubility in the emollients; assay type: physicochemical; details: maximum soluble amount of ethylhexyl triazone (Uvinul T 150) in the emollient at 22 °C
Source text: This operation was repeated until the maximum soluble amount of the UV filter was exceeded. At higher concentrations, often a longer stirring time of several hours is necessary for complete dissolution. When in this way the maximum concentration had been determined approximately, for fine determination the concentration range was repeated around this maximum concentration with smaller initial weighed amounts of the UV filter.

UV filter solubility: Ethylhexyl triazone [1] [%]	Solubility in wt % in the test emollients (test emollient: Isohexadecane)	Solubility in wt % in the test emollients (test emollient: Mineral oil) [% wt %]	Solubility in wt % in the test emollients (test emollient: Octyldodecanol)	Solubility in wt % in the test emollients (test emollient: Oleyl erucate) [% wt %]	Compound
7.0	–	–	–	–	PPG-15 stearyl ether
–	at 75% solid,	<5	at 75% solid,	<50	CCCCCCCC(=O)OCC(O)CO (centres unmarked) [Glyceryl monocaprylate]
